The values that follow come from patent US20230023092A1, “TREATMENT OF DEPRESSION AND OTHER VARIOUS DISORDERS WITH PSILOCYBIN” (COMPASS […], priority 2019, published 2023).

Assay [1] concerns healthy subjects. Kind of assay: Positive and Negative Affect Schedule (PANAS). It is filed as in vivo, human. To be noted: for PANAS-Negative, change from baseline, Mean / PANAS-Positive, change from baseline, Mean: Post-Treatment Day 0, LS mean; for PANAS-Negative, change from baseline, Mean difference / PANAS-Positive, change from baseline, Mean difference: Post-Treatment Day 0. The text has this:
In some embodiments, the Positive and Negative Affect Schedule (PANAS) is used to evaluate the safety and/or efficacy of psilocybin. The PANAS measures the acute emotional drug effects and comprises 2 mood scales that measure positive and negative affect. Positive affect refers to the propensity to experience positive emotions and interact with others positively. Negative affect involves experiencing the world in a more negative way. Subjects respond to 10 questions associated with negative affect and 10 questions associated with positive affect. The questions are scaled using a 5-point scale that ranges from “slightly or not at all (1)” to “extremely (5)”. A total higher score on the positive affect questions indicates more of a positive effect while a lower score on the negative affect questions indicates less of a negative affect. In some embodiments, after treating according to the methods of the disclosure, a subject experiences a decrease in negative affect score of the PANAS, between about 5% and about 100%, for example about 5%, about 10%, about 15%, about 20%, about 25%, about 30%, about 35%, about 40%, about 45%, about 50%, about 55%, about 60%, about 65%, about 70%, about 75%, about 80%, about 85%, about 90%, about 95%, or about 100%, compared to prior to treatment. In some embodiments, after treating according to the methods of the disclosure, a subject experiences an increase in positive affect score of the PANAS, between about 5% and about 100%, for example about 5%, about 10%, about 15%, about 20%, about 25%, about 30%, about 35%, about 40%, about 45%, about 50%, about 55%, about 60%, about 65%, about 70%, about 75%, about 80%, about 85%, about 90%, about 95%, or about 100%, about 110%, about 120%, about 130%, about 140%, about 150%, about 160%, about 170%, about 180%, about 190%, about 200%, about 210%, about 220%, about 230%, about 240%, about 250%, about 260%, about 270%, about 280%, about 290%, or about 300%, or more, compared to prior to treatment.
The Positive and Negative Affects Schedule (PANAS) score was also evaluated to measure the effect of psilocybin.

The test system of assay [2] is healthy subjects. Kind of assay: Toronto Empathy Questionnaire (TEQ). It is filed as in vivo, human. The note with it: Day 7. The text has this: In some embodiments, the Toronto Empathy Questionnaire (TEQ) is utilized to evaluate the safety and/or efficacy of psilocybin. The TEQ represents empathy as a primarily emotional process. […] The TEQ is a brief, reliable and valid instrument for the assessment of empathy. In some embodiments, after treating according to the methods of the disclosure, a subject's TEQ score increases by about 5%, about 10%, about 15%, about 20%, about 25%, about 30%, about 35%, about 40%, about 45%, about 50%, about 55%, about 60%, about 65%, about 70%, about 75%, about 80%, about 85%, about 90%, about 95%, or about 100%, about 110%, about 120%, about 130%, about 140%, about 150%, about 160%, about 170%, about 180%, about 190%, about 200%, about 210%, about 220%, about 230%, about 240%, about 250%, about 260%, about 270%, about 280%, about 290%, or about 300%, or more, compared to prior to treatment.
The Pictorial Empathy Test (PET), Reading the Mind in the Eyes Test (RMET), Scale of Social Responsibility (SSR), Social Value Orientation (SVO), and Toronto Empathy Questionnaire (TEQ) were performed. Table 20 summarizes the results of the mixed model for repeated measures (MMRM) analysis for each of the aforementioned social cognition panel scales measured on Day 7 and Day 84 after study drug administration.

In the case of `CN(C)CCc1c[nH]c2cccc(OP(=O)(O)O)c12` [Psilocybin, psilocybin], the “PANAS negative affect, mean increase from baseline” value with healthy subjects [1] (25 mg, Day 0 after treatment) is 1.3. Moreover, the “PANAS-Negative, change from baseline, Mean” value with healthy subjects [1] (Psilocybin 10 mg) is given as −0.6; with healthy subjects [1] (Psilocybin 25 mg), 1.3. Moreover, the “PANAS-Positive, change from baseline, Mean” value is on record as 0.7 in the assay with healthy subjects [1] (Psilocybin 10 mg) and −0.4 in the assay on healthy subjects [1] (Psilocybin 25 mg). Further, the “PANAS-Negative, change from baseline, Mean difference” value in the assay on healthy subjects [1] (Psilocybin 10 mg-Placebo) is reported as −0.5; with healthy subjects [1] (Psilocybin 25 mg-10 mg), 1.9; in the assay with healthy subjects [1] (Psilocybin 25 mg-Placebo) it was 1.4. Besides, the entries for the “PANAS-Positive, change from baseline, Mean difference” value in the assay on healthy subjects [1] (Psilocybin 10 mg-Placebo), with healthy subjects [1] (Psilocybin 25 mg-10 mg) and with healthy subjects [1] (Psilocybin 25 mg-Placebo) were 5.7, −1.0 and 4.6, respectively. Also, the “TEQ change from baseline (LS mean)” value was −0.1 in the assay on healthy subjects [2] (psilocybin 10 mg) and 0.0 with healthy subjects [2] (psilocybin 25 mg). Moreover, the “TEQ change from baseline, LS mean difference” value was 0.1 in the assay on healthy subjects [2] (psilocybin 10 mg - placebo), 0.1 in the assay on healthy subjects [2] (psilocybin 25 mg - 10 mg) and 0.2 with healthy subjects [2] (psilocybin 25 mg - placebo).
